US8722849B2, “Polypeptides” (Novo Nordisk A/S, priority 2011, dated 2014)
Starred links: 1 amine or outer side, 2 acyl side, 3 side chain; linkers in the order of their positions; H or OH if unused. Positions of bridges follow the written chain, without caps; N, C: chain ends. Residues, ends and D or L forms follow the SMILES beside them. *: point of attachment. C20 diacid = O=C(O)CCCCCCCCCCCCCCCCCCC(=O)*; γGlu = O=C(O)[C@H](CCC(=O)[*:2])N[*:1]

How the values were obtained:
[1] = Assay (IX) pK, determination of T½ in mini-pig; assay type: in vivo, Göttingen mini-pigs; details: male, Göttingen, iv, 2 nmol/kg; minipig; plasma terminal half-life
food intake = assay: Assay (I) efficacy testing on appetite (food intake), ad libitum fed rat model; assay type: in vivo, Sprague Dawley (SD) rats; details: 3 nmol/kg
Summary of the method: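 Food consumption was logged per animal every hour up to 7 h and again at 24 h (occasionally 48 h) after a single 0.01–3 mg/kg dose, given sc, po or ip at dark-phase onset. Ad libitum fed SD rats, 200–250 g, kept on inverted light/dark cycle; vehicle group included, outliers removed by Grubbs test.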

Row | SMILES | half-life [1] | Food intake reduction 0-24 h 3 nmol/kg (%) (food intake) | Food intake reduction 24-48 h 3 nmol/kg (%) (food intake)
1 | CC[C@H](C)[C@H](NC(=O)[C@@H]1CCCN1C(=O)CNC(=O)[C@H](Cc1ccccc1)NC(=O)[C@H](CC(N)=O)NC(=O)[C@H](CC(N)=O)NC(=O)[C@H](CO)NC(=O)[C@H](CO)NC(=O)[C@H](Cc1c[nH]cn1)NC(=O)[C@H](Cc1c[nH]cn1)NC(=O)[C@H](CC(C)C)NC(=O)[C@H](Cc1ccccc1)NC(=O)[C@H](CCC(=O)O)NC(=O)[C@H](C)NC(=O)[C@H](CC(C)C)NC(=O)[C@H](CCCNC(=N)N)NC(=O)[C@H](CCC(N)=O)NC(=O)[C@@H](NC(=O)[C@H](C)NC(=O)[C@@H]1CSSC[C@H](NC(=O)[C@H](CCCCN)NC(=O)CC[C@H](NC(=O)CCCCCCCCCCCCCCCCCCC(=O)O)C(=O)O)C(=O)N[C@@H](CC(N)=O)C(=O)N[C@@H]([C@@H](C)O)C(=O)N[C@@H](C)C(=O)N[C@@H]([C@@H](C)O)C(=O)N1)[C@@H](C)O)C(=O)N[C@@H](CC(C)C)C(=O)N1CCC[C@H]1C(=O)N1CCC[C@H]1C(=O)N[C@H](C(=O)N[C@@H](CC(N)=O)C(=O)N[C@H](C(=O)NCC(=O)N[C@@H](CO)C(=O)N[C@@H](CC(N)=O)C(=O)N[C@H](C(=O)N[C@@H](Cc1ccc(O)cc1)C(N)=O)[C@@H](C)O)C(C)C)[C@@H](C)O [Example 27, N-alpha-[(S)-4-Carboxy-4-(19-carboxynonadecanoylamino)butyryl]-[Glu14,His17]-pramlintide] ({C20 diacid-γGlu}-KCNTATCATQRLAEFLHHSSNNFGPILPPTNVGSNTY-NH2; disulfide 2-7 (inferred)) | 90 h | 56% | 53%
2 | CC[C@H](C)[C@H](NC(=O)[C@@H]1CCCN1C(=O)CNC(=O)[C@H](Cc1ccccc1)NC(=O)[C@H](CC(N)=O)NC(=O)[C@H](CC(N)=O)NC(=O)[C@H](CO)NC(=O)[C@H](CO)NC(=O)[C@H](Cc1c[nH]cn1)NC(=O)[C@H](CCCNC(=N)N)NC(=O)[C@H](CC(C)C)NC(=O)[C@H](Cc1ccccc1)NC(=O)[C@H](CCC(=O)O)NC(=O)[C@H](C)NC(=O)[C@H](CC(C)C)NC(=O)[C@H](CCCNC(=N)N)NC(=O)[C@H](CCC(N)=O)NC(=O)[C@@H](NC(=O)[C@H](C)NC(=O)[C@@H]1CSSC[C@H](NC(=O)[C@H](CCCCN)NC(=O)CC[C@H](NC(=O)CCCCCCCCCCCCCCCCCCC(=O)O)C(=O)O)C(=O)N[C@@H](CC(N)=O)C(=O)N[C@@H]([C@@H](C)O)C(=O)N[C@@H](C)C(=O)N[C@@H]([C@@H](C)O)C(=O)N1)[C@@H](C)O)C(=O)N[C@@H](CC(C)C)C(=O)N1CCC[C@H]1C(=O)N1CCC[C@H]1C(=O)N[C@H](C(=O)N[C@@H](CC(N)=O)C(=O)N[C@H](C(=O)NCC(=O)N[C@@H](CO)C(=O)N[C@@H](CC(N)=O)C(=O)N[C@H](C(=O)N1CCC[C@H]1C(N)=O)[C@@H](C)O)C(C)C)[C@@H](C)O [Example 53, N-alpha-[(S)-4-Carboxy-4-(19-carboxynonadecanoylamino)butyryl]-[Glu14,Arg17,Pro37]-pramlintide] | 98 h | 40% | 28%
